From patent publication US9238656B2, “Imidazo[4,5-b]pyridine derivatives as ALK and JAK modulators for the treatment of proliferative disorders” (priority 2012, dated 2016)

Tests used:
[1] = biological target: baculovirus-expressed ALK (Homo sapiens, UniProt Q9UM73); test: ALK kinase inhibition, TRF/ELISA; assay type: biochemical; details: read-out: ALK Potency
Procedure, shortened: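 Plates were coated with GST-PLC-γ substrate (10 μg/mL) and the reaction was started with 30 ng/mL ALK, running 15 min at 37° C. Phosphotyrosine was detected by time-resolved fluorescence with Eu-labeled PT66 antibody. IC50s came from variable-slope sigmoidal fits of percent inhibition versus log concentration.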

[2] = biological target: baculovirus-expressed JAK2 kinase (Homo sapiens, UniProt O60674); test: biochemical; details: 0.2 μM ATP; read-out: JAK2 Potency
Sequence of baculovirus-expressed JAK2 kinase (O60674 whole entry): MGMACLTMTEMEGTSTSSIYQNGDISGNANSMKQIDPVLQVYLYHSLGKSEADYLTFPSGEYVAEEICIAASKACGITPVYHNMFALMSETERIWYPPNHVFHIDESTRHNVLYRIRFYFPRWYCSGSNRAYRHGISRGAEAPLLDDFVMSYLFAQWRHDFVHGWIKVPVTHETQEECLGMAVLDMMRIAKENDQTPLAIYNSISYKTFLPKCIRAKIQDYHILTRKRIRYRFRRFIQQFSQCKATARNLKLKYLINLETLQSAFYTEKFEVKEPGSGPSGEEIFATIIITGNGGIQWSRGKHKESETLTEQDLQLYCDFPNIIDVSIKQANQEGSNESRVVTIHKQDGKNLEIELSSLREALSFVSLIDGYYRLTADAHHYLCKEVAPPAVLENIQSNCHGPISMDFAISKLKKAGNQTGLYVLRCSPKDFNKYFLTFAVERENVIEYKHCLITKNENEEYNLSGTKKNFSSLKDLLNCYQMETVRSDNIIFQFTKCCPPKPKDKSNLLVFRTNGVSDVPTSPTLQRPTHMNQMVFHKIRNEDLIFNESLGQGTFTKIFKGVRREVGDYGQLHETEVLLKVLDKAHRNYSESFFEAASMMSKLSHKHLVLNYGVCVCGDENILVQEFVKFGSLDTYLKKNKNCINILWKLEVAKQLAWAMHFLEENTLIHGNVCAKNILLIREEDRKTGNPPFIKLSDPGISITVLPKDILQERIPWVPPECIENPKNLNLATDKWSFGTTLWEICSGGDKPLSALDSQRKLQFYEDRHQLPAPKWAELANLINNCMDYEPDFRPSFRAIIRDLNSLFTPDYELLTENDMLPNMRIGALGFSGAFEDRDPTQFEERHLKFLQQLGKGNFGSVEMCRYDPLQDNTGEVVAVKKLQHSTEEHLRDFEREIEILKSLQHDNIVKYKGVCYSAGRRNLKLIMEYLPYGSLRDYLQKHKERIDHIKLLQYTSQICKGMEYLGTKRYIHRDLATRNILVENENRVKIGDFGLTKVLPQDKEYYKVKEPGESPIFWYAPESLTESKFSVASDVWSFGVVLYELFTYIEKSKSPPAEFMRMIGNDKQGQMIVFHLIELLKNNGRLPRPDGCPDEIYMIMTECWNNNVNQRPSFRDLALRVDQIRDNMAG
Procedure, shortened: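 Time-resolved fluorescence kinase assay using 15 ng/mL baculovirus-expressed JAK2 on Neutravidin-captured biotinylated 15-mer peptide substrate, reaction 20 min at room temperature. IC50 from percent inhibition versus log concentration, sigmoidal variable-slope fit.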

Sequence of baculovirus-expressed ALK (Q9UM73 19-1620): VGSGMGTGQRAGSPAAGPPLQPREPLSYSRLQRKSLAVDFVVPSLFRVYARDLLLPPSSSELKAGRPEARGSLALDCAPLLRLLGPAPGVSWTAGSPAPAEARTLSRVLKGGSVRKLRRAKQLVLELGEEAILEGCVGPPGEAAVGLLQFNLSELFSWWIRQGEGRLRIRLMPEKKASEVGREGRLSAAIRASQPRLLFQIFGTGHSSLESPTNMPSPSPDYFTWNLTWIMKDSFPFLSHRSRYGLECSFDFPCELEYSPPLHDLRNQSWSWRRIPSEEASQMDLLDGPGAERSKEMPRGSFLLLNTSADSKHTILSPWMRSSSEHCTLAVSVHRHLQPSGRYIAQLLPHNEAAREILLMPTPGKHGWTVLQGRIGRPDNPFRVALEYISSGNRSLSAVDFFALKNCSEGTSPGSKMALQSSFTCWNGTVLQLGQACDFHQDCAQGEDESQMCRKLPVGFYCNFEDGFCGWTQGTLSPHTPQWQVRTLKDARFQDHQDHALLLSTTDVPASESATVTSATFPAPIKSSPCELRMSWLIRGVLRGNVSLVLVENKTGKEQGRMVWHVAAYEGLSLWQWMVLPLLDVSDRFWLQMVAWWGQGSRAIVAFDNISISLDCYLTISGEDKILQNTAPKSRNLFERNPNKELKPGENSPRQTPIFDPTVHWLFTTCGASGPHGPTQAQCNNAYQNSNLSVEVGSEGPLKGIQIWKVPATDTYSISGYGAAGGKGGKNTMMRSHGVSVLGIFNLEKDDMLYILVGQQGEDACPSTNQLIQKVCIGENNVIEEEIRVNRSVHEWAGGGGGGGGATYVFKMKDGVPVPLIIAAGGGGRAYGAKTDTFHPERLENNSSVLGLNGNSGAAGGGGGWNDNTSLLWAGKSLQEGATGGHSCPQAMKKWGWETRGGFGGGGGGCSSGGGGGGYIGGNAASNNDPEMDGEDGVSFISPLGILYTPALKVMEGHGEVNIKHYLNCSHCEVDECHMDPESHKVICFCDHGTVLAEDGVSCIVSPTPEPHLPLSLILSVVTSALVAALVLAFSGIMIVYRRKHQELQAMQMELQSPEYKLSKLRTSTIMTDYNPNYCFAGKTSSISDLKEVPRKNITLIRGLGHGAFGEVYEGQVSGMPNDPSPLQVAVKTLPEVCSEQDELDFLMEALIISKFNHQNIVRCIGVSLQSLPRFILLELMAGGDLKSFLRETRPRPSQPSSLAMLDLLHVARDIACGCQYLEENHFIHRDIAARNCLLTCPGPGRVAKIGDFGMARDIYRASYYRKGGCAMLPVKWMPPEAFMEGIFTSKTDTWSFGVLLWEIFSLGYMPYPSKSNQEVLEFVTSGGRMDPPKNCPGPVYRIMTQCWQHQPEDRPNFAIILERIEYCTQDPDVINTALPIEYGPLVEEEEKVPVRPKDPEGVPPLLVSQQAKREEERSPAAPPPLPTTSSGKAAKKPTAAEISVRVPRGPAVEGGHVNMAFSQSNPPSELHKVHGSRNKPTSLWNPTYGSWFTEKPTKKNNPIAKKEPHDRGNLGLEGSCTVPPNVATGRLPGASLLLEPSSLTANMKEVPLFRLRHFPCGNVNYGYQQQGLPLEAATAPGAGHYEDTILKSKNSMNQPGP

Structure (SMILES)	IC50 [1]	IC50 [2]
CN(C)C(=O)[C@@H]1[C@H](Nc2c(Cl)cnc3[nH]c(-c4sc(N5CC[C@@H](O)C5)nc4Cl)nc23)[C@H]2C=C[C@@H]1C2 [Compound CLXVIII, (1S,2S,3R,4R)-3-{6-Chloro-2-[4-chloro-2-((R)-3-hydroxy-pyrrolidin-1-yl)-thiazol-5-yl]-3H-imidazo[4,5-b]pyridin-7-ylamino}-bicyclo[2.2.1]hept-5-ene-2-carboxylic acid dimethylamide]	< 100 nM	< 100 nM
C[C@@H](O)CN1CCC(n2cc(-c3nc4c(N[C@H]5[C@@H](C(N)=O)[C@@H]6C=C[C@H]5C6)c(Cl)cnc4[nH]3)cn2)CC1 [Compound LVIII, (1S,2S,3R,4R)-3-(6-Chloro-2-{1-[1-((R)-2-hydroxypropyl)-piperidin-4-yl]-1H-pyrazol-4-yl}-3H-imidazo[4,5-b]pyridine-7-ylamino)-bicyclo[2.2.1]hept-5-ene-2-carboxylic acid amide]	< 100 nM	< 100 nM
NC(=O)[C@@H]1[C@H](Nc2c(Cl)cnc3[nH]c(-c4cccc(OCC(=O)O)c4)nc23)[C@H]2C=C[C@@H]1C2 [Compound CCLXIII, 2-(3-(7-((1R,2R,3S,4S)-3-carbamoylbicyclo[2.2.1]hept-5-en-2-ylamino)-6-chloro-3H-imidazo[4,5-b]pyridin-2-yl)phenoxy)acetic acid]	100 to 1000 nM	< 100 nM
CN1CCC(Oc2cccc(-c3nc4c(N[C@H]5[C@@H](C(N)=O)[C@@H]6C=C[C@H]5C6)c(Cl)cnc4[nH]3)c2)CC1 [Compound CCXLVIII, (1S,2S,3R,4R)-3-(6-chloro-2-(3-(1-methylpiperidin-4-yloxy)phenyl)-3H-imidazo[4,5-b]pyridin-7-ylamino)bicyclo[2.2.1]hept-5-ene-2-carboxamide]	< 100 nM	< 100 nM
COc1cc(CN2CCOCC2)ccc1-c1nc2c(N[C@H]3[C@@H](CO)[C@@H]4C=C[C@H]3C4)c(Cl)cnc2[nH]1 [Compound LII, {(diexo)-3-[6-Chloro-2-(2-methoxy-4-morpholin-4-ylmethylphenyl)-3H-imidazo[4,5-b]pyridine-7-ylamino]-bicyclo[2.2.1]hept-5-en-2-yl}-methanol]	< 100 nM	100 to 1000 nM
N#Cc1cccc(-c2nc3c(N[C@H]4[C@@H](C(N)=O)[C@@H]5C=C[C@H]4C5)c(Cl)cnc3[nH]2)c1 [Compound CXLIV, (1S,2S,3R,4R)-3-[6-Chloro-2-(3-cyano-phenyl)-3H-imidazo[4,5-b]pyridin-7-ylamino]-bicyclo[2.2.1]hept-5-ene-2-carboxylic acid amide]	100 to 1000 nM	< 100 nM
O=C(NC1CC1)[C@@H]1[C@H](Nc2c(Cl)cnc3[nH]c(-c4sc(N5CCOCC5)nc4Cl)nc23)[C@H]2C=C[C@@H]1C2 [Compound CLXXIV, (1S,2S,3R,4R)-3-[6-Chloro-2-(4-chloro-2-morpholin-4-yl-thiazol-5-yl)-3H-imidazo[4,5-b]pyridin-7-ylamino]-bicyclo[2.2.1]hept-5-ene-2-carboxylic acid cyclopropylamide]	< 100 nM	100 to 1000 nM
COc1cc(N(C)C)ccc1-c1nc2c(N[C@H]3[C@@H](C(N)=O)[C@@H]4C=C[C@H]3C4)c(Cl)cnc2[nH]1 [Compound XVII, (1S,2S,3R,4R)-3-[6-Chloro-2-(4-dimethylamino-2-methoxy-phenyl)-3H-imidazo[4,5-b]pyridine-7-ylamino]-bicyclo[2.2.1]hept-5-ene-2-carboxylic acid amide]	< 100 nM	< 100 nM
COc1cc(CN2CC[C@@H](O)C2)ccc1-c1nc2c(N[C@H]3[C@@H](C(N)=O)[C@@H]4C=C[C@H]3C4)c(Cl)cnc2[nH]1 [Compound XLVII, (1S,2S,3R,4R)-3-(6-Chloro-2-[4-((R)-3-hydroxy-pyrrolidin-1-ylmethyl)-2-methoxyphenyl]-3H-imidazo[4,5-b]pyridine-7-ylamino)-bicyclo[2.2.1]hept-5-ene-2-carboxylic acid amide]	< 100 nM	< 100 nM
NC(=O)[C@@H]1[C@H](Nc2c(Br)cnc3[nH]c(-c4ccc(F)cc4)nc23)[C@H]2C=C[C@@H]1C2 [Compound CXXXIII, (1S,2S,3R,4R)-3-[6-Bromo-2-(4-fluoro-phenyl)-3H-imidazo[4,5-b]pyridin-7-ylamino]-bicyclo[2.2.1]hept-5-ene-2-carboxylic acid amide]	100 to 1000 nM	< 100 nM
NC(=O)[C@@H]1[C@H](Nc2c(Br)cnc3[nH]c(-c4cccc(Cl)c4)nc23)[C@H]2C=C[C@@H]1C2 [Compound CXLII, (1S,2S,3R,4R)-3-[6-Bromo-2-(3-chloro-phenyl)-3H-imidazo[4,5-b]pyridin-7-ylamino]-bicyclo[2.2.1]hept-5-ene-2-carboxylic acid amide]	100 to 1000 nM	< 100 nM
NC(=O)[C@@H]1[C@H](Nc2c(Br)cnc3[nH]c(-c4sc(N5CC[C@@H](O)C5)nc4Cl)nc23)[C@H]2C=C[C@@H]1C2 [Compound CLXXI, (1S,2S,3R,4R)-3-{6-Bromo-2-[4-chloro-2-((R)-3-hydroxy-pyrrolidin-1-yl)-thiazol-5-yl]-3H-imidazo[4,5-b]pyridin-7-ylamino}-bicyclo[2.2.1]hept-5-ene-2-carboxylic acid amide]	< 100 nM	< 100 nM
NC(=O)[C@@H]1[C@H](Nc2c(Cl)cnc3[nH]c(-c4ccc(F)cc4)nc23)[C@H]2C=C[C@@H]1C2 [Compound CXXIX, (1S,2S,3R,4R)-3-[6-Chloro-2-(4-fluoro-phenyl)-3H-imidazo[4,5-b]pyridin-7-ylamino]-bicyclo[2.2.1]hept-5-ene-2-carboxylic acid amide]	100 to 1000 nM	< 100 nM
NC(=O)[C@@H]1[C@H](Nc2c(Cl)cnc3[nH]c(-c4cccc(F)c4)nc23)[C@H]2C=C[C@@H]1C2 [Compound CXXVIII]	100 to 1000 nM	< 100 nM
CN(C)c1cccc(-c2nc3c(N[C@H]4[C@@H](C(N)=O)[C@@H]5C=C[C@H]4C5)c(Cl)cnc3[nH]2)c1 [Compound XII, (1S,2S,3R,4R)-3-[6-Chloro-2-(3-dimethylamino-phenyl)-3H-imidazo[4,5-b]pyridin-7-ylamino]-bicyclo[2.2.1]hept-5-ene-2-carboxylic acid amide]	100 to 1000 nM	< 100 nM
Cn1cc(-c2nc3c(NC45CCC(C)(C(=O)C4)C5(C)C)c(Cl)cnc3[nH]2)cn1 (stereo not drawn) [Compound CXCIX, 4-(6-chloro-2-(1-methyl-1H-pyrazol-4-yl)-3H-imidazo[4,5-b]pyridin-7-ylamino)-1,7,7-trimethylbicyclo[2.2.1]heptan-2-one]	1000 to 10000 nM	< 100 nM
COc1cc(OC(F)(F)F)ccc1-c1nc2c(N[C@H]3[C@@H](C(N)=O)[C@@H]4C=C[C@H]3C4)c(Cl)cnc2[nH]1 [Compound XVIII, (1S,2S,3R,4R)-3-[6-Chloro-2-(2-methoxy-4-trifluoromethoxy-phenyl)-3H-imidazo[4,5-b]pyridine-7-ylamino]-bicyclo[2.2.1]hept-5-ene-2-carboxylic acid amide]	< 100 nM	100 to 1000 nM
NC(=O)[C@@H]1[C@H](Nc2c(Br)cnc3[nH]c(-c4ccc5c(c4)CCC4(CCNCC4)O5)nc23)[C@H]2C=C[C@@H]1C2 [Compound CXIV, (1S,2S,3R,4R)-3-[(6-bromo-2-spiro[chromane-2,4′-piperidine]-6-yl-3H-imidazo[4,5-b]pyridin-7-yl)amino]bicyclo[2.2.1]hept-5-ene-2-carboxamide]	< 100 nM	< 100 nM
